Measurements taken from the SangsterLogP compilation.

Row | logP | Structure (SMILES)
1 | 2.98 | CCCCCCCCOc1ccccc1NC(=O)OCCN(C)C
2 | 1.72 | CCCCCOc1cccc(NC(=O)OCCN(C)C)c1
3 | 1.35 | CCCCOc1cccc(NC(=O)OCCN(C)C)c1
4 | 2.47 | CCCCCCOc1ccc(NC(=O)OCCN(C)C)cc1
5 | 2.01 | CCCCCCOc1cccc(NC(=O)OCCN(C)C)c1
6 | 1.24 | CCCOc1ccccc1NC(=O)OCCN(C)C
7 | 2.93 | CCCCCCCOc1ccc(NC(=O)OCCN(C)C)cc1
8 | 2.13 | CCCCCCOc1ccccc1NC(=O)OCCN(C)C
9 | 0.8 | CCOc1cccc(NC(=O)OCCN(C)C)c1
10 | 1.77 | CCCCOc1ccc(NC(=O)OCCN(C)C)cc1

Second part, the molecule before the results:

Row | Structure (SMILES) | logP
11 | CCCCCCCCCOc1cccc(NC(=O)OCCN(C)C)c1 | 3.21
12 | CCCCCCCOc1cccc(NC(=O)OCCN(C)C)c1 | 2.43
13 | COc1ccc(NC(=O)OCCN(C)C)cc1 | 0.97
14 | CCCCOc1ccccc1NC(=O)OCCN(C)C | 1.5
15 | CCCCCCCOc1ccccc1NC(=O)OCCN(C)C | 2.5
16 | CCOc1ccc(NC(=O)OCCN(C)C)cc1 | 1.14
17 | CCOc1ccccc1NC(=O)OCCN(C)C | 1.15
18 | CCCCCCCCCOc1ccccc1NC(=O)OCCN(C)C | 3.35
19 | COc1ccccc1NC(=O)OCCN(C)C | 1.15
20 | CCCCCOc1ccccc1NC(=O)OCCN(C)C | 1.83
21 | CCCOc1cccc(NC(=O)OCCN(C)C)c1 | 1.04
22 | CCCCCCCCCCOc1ccccc1NC(=O)OCCN(C)C | 3.82
23 | CCCOc1ccc(NC(=O)OCCN(C)C)cc1 | 1.41
24 | CCCCCCCCCCOc1ccc(NC(=O)OCCN(C)C)cc1 | 4.02
25 | CCCCCCCCOc1ccc(NC(=O)OCCN(C)C)cc1 | 3.26
26 | CCCCCCCCOc1cccc(NC(=O)OCCN(C)C)c1 | 2.87
27 | CCCCCOc1ccc(NC(=O)OCCN(C)C)cc1 | 2.11
